# Experimental data published in patent US9126997B1, “Synergistic effect of glucocorticoid receptor agonists in combination with proteosome inhibitors for treating leukemia and myeloma” (Northwestern University, priority 2010, dated 2015).
# Columns and labels:
# [1] = test system: glucocorticoid receptor (GR); experiment: Function (transactivation / transrepression) of GR accumulated after cell pre-treatment with BZ in the presence of GR ligands; type: cell-based
# Source text: (§1) Further, GR protein expression can be increased both in the absence and in the presence of […] such as glucocorticoids and SEGRA. Importantly, in the presence of GR ligands, cell pre-treatment with BZ results in the accumulation of GR whose function is defined by the ligand. […] Thus, SEGRA+BZ administered in combination will maximize the anti-inflammatory and anti-proliferative effects of SEGRA therapy that are based on GR transrepression, and at the same time will not induce metabolic side effects typical for glucocorticoids that are based on GR transactivation.
# [2] = test system: glucocorticoid receptor (GR); experiment: GR protein levels in cells after treatment with proteasome inhibitor; type: cell-based, human
# Source text: as §1
smiles,measurement,setting,value
CC(C)C[C@H](NC(=O)[C@H](Cc1ccccc1)NC(=O)c1cnccn1)B(O)O [Bortezomib],GR accumulation and function,[1]; in the presence of SEGRA,accumulation of GR whose activity is shifted towards transrepression
same,GR accumulation and function,[1]; in the presence of glucocorticoids,accumulation of GR that is proficient in both transactivation and transrepression
same,endogenous GR protein levels,[2]; human epithelial and lymphoid cell lines and primary cell cultures,strongly increases endogenous GR protein levels
same,GR expression in GR-negative cells,[2]; some glucocorticoid-resistant GR-negative cells,re-expression of GR
